Drawing on PubChem BioAssay AID179 (DTP/NCI, 2004), this text covers EC50, IC50 and outcome for 71 compounds.

The subject of the test is CEM cells HIV-1 protection, formazan growth assay. Put plainly: NCI AIDS Antiviral Assay. As to conditions: for pIC50: measured here: growth of uninfected CEM cells. Put shortly: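 Protection of CEM cells against HIV-1 was scored from cell growth (soluble formazan) across five concentrations, with parallel uninfected cells. Lack of protection may reflect toxicity.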

Molecules are shown by their SMILES. pEC50, pIC50: −log10 of the molar value. Where “and” joins values, the source holds several entries; their conditions need not be identical. Equal entries are not always repeated. Calls of active or inactive are those of the source.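 How the source made its calls: active means compounds giving half or more protection of infected cells from virus-caused growth loss, again on retest; inactive means the rest.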

Regarding `COc1ccc(N=N/C(=N/NC(=O)c2cc(Cl)ccc2C(=O)c2ccccc2)c2ccc(N(CCC#N)CCC#N)cc2C)cc1`, the pEC50 – broadly, −log10 of the EC50, conventionally taken in molar units – was under 4.00 and the pIC50 (as a rule, the negative decadic logarithm of the IC50, by convention in mol/L) is 4.85. On the same counts, the results for `NC1CSSCC(C(=O)O)NC1=O` (stereo unspecified) are under 4.21 and under 4.21. On the same counts, the results for `COC(=O)[C@@H]1COC(CC/C(C)=C/c2ccccc2)=N1` are under 3.70 and 4.35. On the same counts, the results for `NS(=O)(=O)c1ccc(Nc2c3ccccc3nc3c(C(=O)NCCCN(CCO)CCO)cccc23)cc1` are under 3.70 and 5.03. Regarding `O=C1NN=C(c2ccc([N+](=O)[O-])cc2)C1n1nc(-c2ccccc2)c2ccccc2c1=O` (stereo unspecified), the pEC50 is under 4.21 and the pIC50 was under 4.21.

Take `C1CCC2(CC1)CCN(CCCN1CCOCC1)CC2`: the result was inactive. `CC(=O)CC(c1ccccc1)c1c(O)c2ccccc2oc1=O` (stereo unspecified): the pEC50 is under 3.09 and the pIC50 is 3.43. On the same counts, the results for `Nc1sc(=S)nc2sc(Nc3ccccc3)nc12` are under 3.37 and under 3.37.

Take `c1ccc(N=C2SC3=NCCN3C2=Nc2ccccc2)cc1`: the pEC50 was under 3.70 and the pIC50 is 5.08. In the case of `O=c1onc(Nc2ccccc2)n1-c1ccccc1`, the pEC50 was under 3.70 and the pIC50 is 3.89. On to `CC/C(Br)=C1\CC2c3c(c4ccccc4n3C)CC(C1=O)N2Cc1ccccc1` (stereo unspecified), for which the result was inactive. Still for that read-out and setting: the same measure for `O=N/C(=C(\c1ccccc1)N1CCOCC1)c1ccccc1`: “inactive”. With `Cc1cn(C2CC(NO)C(CO[Si](C)(C)C(C)(C)C)O2)c(=O)[nH]c1=O` (stereo unspecified), the pEC50 is under 3.70 and the pIC50 is 3.90. On the same counts, the results for `CCOC(=O)c1c(C)nn2c1ccc1ccccc12` are under 3.70 and 3.96. On the same counts, the results for `CN(C)N1C(=O)CC2(CCN(CCCC(=O)c3ccc(F)cc3)CC2)C1=O` are under 3.70 and under 3.70. Consider `Cn1c(-c2ccc(/C=N\N3CCN(/N=C/c4ccc(-c5c[n+]6ccccc6n5C)cc4)CC3)cc2)c[n+]2ccccc12`, for which the pEC50 is under 5.52 and the pIC50 is under 5.52.

Turning to `COc1ccc(CCC2(C(OC)OC)NC(=O)NC2=O)cc1` (stereo unspecified), the pEC50 is under 3.70 and the negative logarithm of the IC50 (pIC50) is under 3.70. Turning to `NC(CS)=NCc1ccccc1`, the pEC50 was under 3.70 and the pIC50 was 4.48. In the case of `CC1=NN(C(=O)c2ccccc2O)C(=O)/C1=C/c1cccc([N+](=O)[O-])c1`, the pEC50 is under 3.85 and the pIC50 is 7.01. On the same counts, the results for `C[N+](C)(C)CCNP(=O)(Oc1ccccc1)c1ccccc1` (stereo unspecified) are under 3.25 and under 3.25.

Turning to `NC(=O)NC1C(C(N)=O)N(Cc2ccccc2)C(=O)N1Cc1ccccc1` (stereo unspecified), the pEC50 is under 4.01 and the pIC50 was under 4.01. Take `Brc1ccc(C2=CSC3=NCCN23)cc1`: the pEC50 was under 3.70; the negative-log IC50 (pIC50) was 4.63 and 3.97. With `COC(=O)C(=O)/C=C(/O)c1ccc(OC)cc1`, the pEC50 was under 3.70 and the pIC50 is under 3.70.

Regarding `O=[N+]([O-])c1ccccc1-c1nc2nc(N3CCOCC3)nc(N3CCOCC3)n2n1`, the pEC50 was under 4.11 and the negative-log IC50 (pIC50) was 4.28.

On to `ClB1NB(Cl)NB(Cl)N1`, for which the pEC50 was under 3.86 and the pIC50 is under 3.86.

`COC(=O)C1(CCCCl)CCCN1C(=O)OC(C)(C)C` (stereo unspecified): the pEC50 was under 3.70 and the pIC50 was under 3.70. `Cc1cn([C@@H]2O[C@H](CO[Si](C)(C)C(C)(C)C)[C@]3(O[C@H]3C(=O)NN)[C@H]2O[Si](C)(C)C(C)(C)C)c(=O)[nH]c1=O`: the pEC50 is under 3.70 and the pIC50 was 5.44. With `O=S(=O)(O)CCC(O)S(=O)(=O)O` (stereo unspecified), the pEC50 is under 3.70 and the pIC50 is 3.92.

Consider `COC1CC(COCc2ccccc2)CC(OC)O1` (stereo unspecified), for which the pEC50 was under 3.70 and the pIC50 is 4.18.

In the case of `OCn1nc2c(C3OCCO3)cc3ccccc3n2c1=S`, the pEC50 was under 3.93 and the pIC50 was 4.21. On the same counts, the results for `Cc1ccc(S(=O)(=O)Nn2c(O)c(C#N)c(-c3ccccc3)c(C#N)c2=O)cc1` are under 3.70 and under 3.70.

`O=C(CCc1n[nH]c(=S)o1)Nc1cc(Cl)ccc1Cl`: the pEC50 was under 3.95 and the negative logarithm of the IC50 (pIC50) is under 3.95. Regarding `C[C@]12CC[C@@H]3c4ccc(OC(=O)N(CCCl)CCCl)cc4CC[C@H]3[C@@H]1CC[C@@H]2O`, the pEC50 was under 3.70 and the negative-log IC50 (pIC50) was 5.77. On the same counts, the results for `C#CCOCn1cnc2c(N)ncnc21` are under 2.91 and 3.16. On the same counts, the results for `O=C(CO)CC(=O)C(=O)Nc1ccccc1` are under 3.82 and under 3.82. Take `CCOC(=N)CCCSSc1ccc(N=[N+]=[N-])cc1`: the pEC50 is under 3.70 and the pIC50 was 4.59. On the same counts, the results for `CCCCCCNCCCNc1c2cc(OC)ccc2nc2cccc([N+](=O)[O-])c12` are under 5.70 and 6.46.

For the compound `c1ccc(CC(c2ccccc2)N2CCOCC2)cc1` (stereo unspecified), the result was inactive. As to `CCCCCCCCCCCCCCCCOC1N(C2CC(N=[N+]=[N-])C(CO)O2)C(=O)NC(=O)[C@]1(C)Br` (stereo partly specified), the pEC50 is under 3.70 and the pIC50 was 4.96.

Take `COc1ccc(-c2oc3cc(O)c(OC)c(O)c3c(=O)c2OC2OC(CO)C(O)C(O)C2O)cc1` (stereo unspecified): the outcome was inactive. As to `CCC(=O)NC(NNS(=O)(=O)c1ccc(C)cc1)(C(F)(F)F)C(F)(F)F`, the pEC50 is under 3.70 and the pIC50 is 4.45. On the same counts, the results for `CC(C)(CO)CNc1nc(N)nc(Cl)c1N` are under 3.70 and under 3.70. On the same counts, the results for `O=C1Cn2c(c3ccccc3nc2=O)N1` are under 5.00 and under 5.00. `O=C1/C(=C/c2cccc([N+](=O)[O-])c2)SC(=S)N1C1CC1`: the pEC50 was under 4.49 and the negative logarithm of the IC50 (pIC50) was under 4.49.

Turning to `Clc1ccc(C2NCCNCc3ccccc32)cc1` (stereo unspecified), the result was inactive.

In the case of `CC(=O)Nc1ccc(C(C2=C(O)c3ccccc3C(=O)C2=O)C2=C(O)c3ccccc3C(=O)C2=O)cc1`, the pEC50 is under 3.70 and the negative logarithm of the IC50 (pIC50) is 4.79. As to `Nc1ncnc2c1nc(Br)n2C(C=O)OC(C=O)CO` (stereo unspecified), the outcome was inactive. For `CC(C)CCC[C@@H](C)[C@H]1CC[C@H]2[C@@H]3CC[C@H]4C[C@@H](CCC=C(c5cc(Cl)c(OCc6ccccc6C(=O)O)c(C(=O)O)c5)c5cc(Cl)c(OCc6ccccc6C(=O)O)c(C(=O)O)c5)CC[C@]4(C)[C@H]3CC[C@]12C`, the pEC50 was 4.17 and the pIC50 was under 3.70. Regarding `CCC1Oc2c(CC=C(C)C)c(O)c(C(O)C(C)CC)c3oc(=O)cc1c23` (stereo unspecified), the pEC50 was under 3.70 and the pIC50 is 4.58.

As for `O=C(O)c1ccc(Nc2nc3ccccc3nc2C(=O)O)cc1`, the pEC50 is under 3.70 and the pIC50 was under 3.70. With `N#CC1(C#N)NC(c2cccs2)C(C#N)(C#N)NC1c1cccs1` (stereo unspecified), the pEC50 was under 3.70 and the pIC50 is 4.57.

In the case of `CCN(CC)CCNC(=O)c1ccccc1Nc1c(Cl)cccc1Cl`, the pEC50 is under 3.70 and the pIC50 is 4.56.

Take `C=C(C)[C@@H]1CC=C2[C@H](O)CC(O)C(C)[C@@]2(C)C1` (stereo partly specified): the pEC50 is under 3.68 and the negative logarithm of the IC50 (pIC50) is 4.29.

For `Cc1cn(C2CC(N=[N+]=[N-])C(COP(=O)(OCC(=O)c3ccco3)OCC(=O)c3ccco3)O2)c(=O)[nH]c1=O` (stereo unspecified), the negative logarithm of the EC50 (pEC50) was 8.34 and the pIC50 was 5.70. Turning to `COc1cc2ccc(C(=O)O)cc2cc1OC`, the outcome was inactive. Consider `COc1ccc(-c2coc3c4c(c(CC=C(C)C)c(O)c3c2=O)OC(C)(C)C=C4)cc1OC`, for which the pEC50 was under 4.00 and the pIC50 is under 4.00. On to `COc1cc2c(c(O)c1OC)CC1CCC(=O)N1C2c1cccc2ccccc12` (stereo unspecified), for which the pEC50 was under 3.70 and the pIC50 was 4.76.

For the compound `S=C(S)N1CCOCC1`, the pEC50 was under 3.70 and the pIC50 was 6.14.

On to `Cc1cn(C2CC(N=[N+]=[N-])C(COC(=O)CCOCCCCCCCCCl)O2)c(=O)[nH]c1=O` (stereo unspecified), for which the pEC50 was 8.16 and the pIC50 is 4.70. For `COc1c(C(=O)NCCN(CCNC(=O)c2cccc(-c3cccc(C(=O)N(C)C)c3OC)c2OC)CCNC(=O)c2cccc(-c3cccc(C(=O)N(C)C)c3OC)c2OC)cccc1-c1cccc(C(=O)N(C)C)c1OC`, the outcome was inactive. As for `O=c1c(-c2c(-c3ccccc3)oc3ccc(Cl)cc3c2=O)c(-c2ccccc2)oc2ccc(Cl)cc12`, the pEC50 is under 3.70 and the pIC50 was under 3.70. Regarding `COC(=O)Nc1nc2ccc(C(=O)c3ccc(F)cc3)cc2[nH]1`, the pEC50 was under 5.70 and the pIC50 is 7.06.

On to `ClC1(c2ccccc2)c2ccc(Br)cc2-c2cc(Br)ccc21`, for which the pEC50 was under 3.70 and the pIC50 was 5.24. Take `CC(C)CCCC(C)C1CCC2[C@@H]3CCC4C[C@@H](CCC=C(c5cc(Br)c(O)c(C(=O)O)c5)c5cc(Br)c(O)c(C(=O)O)c5)CC[C@]4(C)C3CC[C@]12C` (stereo partly specified): the pEC50 was 4.68 and the pIC50 was 3.55.

On to `Clc1ccc2c(Cl)nc(-c3ccccc3)nc2c1`, for which the outcome was inactive.

Turning to `CCOC(=O)C1(Cc2ccccc2)Cc2ccccc2C1=O` (stereo unspecified), the pEC50 is under 3.70 and the negative-log IC50 (pIC50) is 4.43. Turning to `Nc1ncnc2c(C3OC(CO)C(O)C3O)nsc12` (stereo unspecified), the pEC50 was under 3.70. Turning to `N=S(c1ccccc1[N+](=O)[O-])c1ccccc1[N+](=O)[O-]`, the pEC50 was under 3.70; the pIC50 was 6.20 and 6.23.

For `O=C(Nc1ccc2c(O)c(N=Nc3ccc(S(=O)(=O)O)cc3)c(S(=O)(=O)O)cc2c1)Nc1ccc2c(O)c(N=Nc3ccc(S(=O)(=O)O)cc3)c(S(=O)(=O)O)cc2c1`, the pEC50 is 5.05 and the pIC50 is 3.96.

As for `O=C(O)C(C(F)(F)F)C(F)(F)F` (tested in a mixture with another compound), the pEC50 is under 3.70 and the pIC50 is under 3.70. The compound `O=C(O)c1c(Br)c(Br)c(Br)c(Br)c1-c1c2ccc(=O)cc-2oc2cc(O)ccc12` had a pEC50 of under 3.70 and a negative-log IC50 (pIC50) of 4.55.
